{
  "source": "patent US20260285992A1",
  "about": "“GIP ACTIVITY MODULATORS AND ORTHOSTATIC INTOLERANCE” (Antag Therapeutics ApS, priority 2023, published 2026)",
  "key": {"[1]": {"test": "Orthostatic challenges before and after subcutaneous GIP (1-42) or placebo in fasted healthy subjects: heart rate, blood pressure and clinical signs", "type": "in vivo, human", "description": "Synthetic human GIP (1-42) (GIP) (PolyPeptide Group, Strasbourg, France) was dissolved in a sodium hydrogen carbonate buffer with 0.5% human serum albumin in NaCl 9 mg/ml to a final concentration of 4 mg/ml. The solution was sterile filtered and dispensed into glass ampoules. On the appropriate study days, the GIP solutions were further diluted in saline (NaCl 9 mg/ml) to 125 μg/ml. Saline (NaCl 9 mg/mL) was used as placebo.\nAt the beginning of each study day, participants were weighed and received either a placebo injection or a weight-dependent GIP (1-42) dose of 2.7 μg/kg at time 0.\nFour healthy, non-medicated participants between 33-40 years old (one male and three females) were included in the study. On each of the two study days, participants arrived after an overnight fast (at least 10 h fasting). To enable continuous heart rate monitoring, three electrodes compatible with the Holter Spiderview recorder were placed over the rib at V5, on the xiphoid muscle at the bottom of the sternum, and at the sternum over the manubrium after the skin was disinfected or shaved and disinfected for the male. Baseline characterization was initiated at timepoint-60 min and lasted for one hour. For baseline characterization, the participants alternated between the supine position and 10 min orthostatic challenges initiated at timepoints −45 min and −20 min. Orthostatic challenges were elicited by actively standing up from the hospital bed. At timepoint 0 min, the participants received a subcutaneous injection of either 2.7 μg/kg GIP or saline in a single-blinded manner. Following the injection, the participants rested in the supine position for one hour when not doing 10 min orthostatic challenges initiated at 15 min and 40 min post-injection. At time points −50 min, −40 min, −30 min, 10 min, 20 min, 45 min, and 55 min systolic- and diastolic blood pressure as well as heart rate were measured using the Omron M2 blood pressure monitor. The two study days were identical except for the injection of either GIP or saline. Fasting prior to administration of GIP mimics the body's natural response to eating, as eating induces GIP secretion. The method employed thus mimics fasting or postprandial conditions with the emphasis on GIP's physiological effects."}, "[2]": {"conditions": "in vivo; cited from earlier work"}},
  "data": [
    {"sequence": "YAEGTFISDYSIAMDKIHQQDFVNWLLAQKGKKNDWKHNITQ [GIP]", "values": [
      {"measurement": "effect on orthostatic tolerance (conclusion)", "setting": "[1]; by decreasing SBP and DBP and increasing heart rate, in men and women", "result": "significantly worsens orthostatic tolerance"},
      {"measurement": "subjects who experienced presyncope and had to lay down", "setting": "[1]; first orthostatic challenge following GIP administration, four subjects, 2.7 μg/kg s.c.", "result": "one of the subjects"},
      {"measurement": "increase in heart rate over baseline supine levels, during the orthostatic challenge", "setting": "[1]; four healthy fasted subjects, 2.7 μg/kg GIP (1-42) s.c., orthostatic challenge, Omron M2 monitor, FIG. 1", "result": 36, "unit": "bpm"},
      {"measurement": "increase in heart rate over baseline supine levels, supine position", "setting": "[1]; four healthy fasted subjects, 2.7 μg/kg GIP (1-42) s.c., supine, Omron M2 monitor, FIG. 1", "result": 17, "unit": "bpm"},
      {"measurement": "change in DBP during the orthostatic challenge compared to placebo levels", "setting": "[1]; four healthy fasted subjects, 2.7 μg/kg s.c., orthostatic challenge, FIG. 5", "result": "−13", "unit": "mmHg"},
      {"measurement": "decrease in SBP during the orthostatic challenges compared to placebo levels", "setting": "[1]; four healthy fasted subjects, 2.7 μg/kg s.c., orthostatic challenges, FIG. 4", "result": 12, "unit": "mmHg"},
      {"measurement": "decrease in SBP in the supine position compared to placebo levels", "setting": "[1]; four healthy fasted subjects, 2.7 μg/kg s.c., supine, FIG. 4", "result": "4-5 mmHg"},
      {"measurement": "change in DBP in the supine position compared to placebo levels", "setting": "[1]; four healthy fasted subjects, 2.7 μg/kg s.c., supine, FIG. 5", "result": "−10", "unit": "mmHg"},
      {"measurement": "subjects who reported significant dizziness and lightheadedness", "setting": "[1]; orthostatic challenges post GIP-injection, 2.7 μg/kg s.c.", "result": "Three out of four subjects"},
      {"measurement": "increase in heart rate compared to baseline supine heart rate during the first orthostatic challenge post injection (Holter monitor)", "setting": "[1]; two subjects, 2.7 μg/kg s.c., first orthostatic challenge post injection, FIGS. 2 and 3", "result": "49-50 bpm"},
      {"measurement": "gradual increase in supine heart rate compared to baseline supine heart rate (Holter monitor)", "setting": "[1]; two subjects, 2.7 μg/kg s.c., within 15 min, range depends on the subject, FIGS. 2 and 3", "result": "19-28 bpm"},
      {"measurement": "half-life", "setting": "[2]", "result": "~ 4 min"}
    ]}
  ]
}
